Experimental data from patent US5827827A, “HIV-1 protease inhibitors” (The Scripps Research Institute, priority 1996, dated 1998).

Columns and labels:
[1] = target: T1, HIV-1 protease (Human immunodeficiency virus type 1 group M subtype B, UniProt P03369); experiment: HIV-1 PR inhibition (HPLC assay of HIV substrate IV cleavage after preincubation with inhibitor); type: biochemical
T1 construct: each of the identical 99 amino acid subunits contributes a single aspartyl residue to the catalytic site; made in house; host or cells: chemical synthesis (no expression host); obtained from Dr. Stephen Kent, The Scripps Research Institute
Description: Typical reactions were carried out at room temperature (25° C.) in 150 μl total volumes of 100 mM MES buffer, pH 6.2, containing 1 mM ethylenediaminetetraacetic acid (EDTA) and 2 mM dithiothreitol (DTT) plus 0.1 percent (v/v) Triton X-100.
Synthetic HIV-1 protease [0.5 μg, obtained from Dr. Stephen Kent of The Scripps Research Institute; see Cell, 1988, 54; 363-368] was first incubated in buffer with (or without) various concentrations of "inhibitor(s)" for 30 minutes at 25° C. The protease reaction was then initiated by the addition of HIV substrate IV (Bachem Bioscience Inc.) at fixed concentrations (e.g., 100 mg/ml). HIV Substrate IV has the sequence
Lys-Ala-Arg-Val-Nle-p-NO2 Phe-glu-Ala-Nle-NH2 (SEQ ID NO 15)
At three appropriate times (normally 40, 80 and 120 minutes) the hydrolysis was stopped by adding a 40 μl aliquot from the reaction to 40 μl of a prepared quench solution. The quench solution was 1:4 acetonitrile:water (3 percent trifluoroacetic acid; TFA) and contained 150 μM m-toluic acid which served as an HPLC standard. […] Reaction progress was monitored by following the increasing absorbance (peak height) of the substrate IV cleavage product detected at […]. […]

[2] = system: HIV-1 PR; conditions: Blumenstein et al. 1989; cited from earlier work
[3] = system: HIV-2 PR; conditions: Blumenstein et al. 1989; cited from earlier work

SMILES | t1/2 of inactivation of the protease ([1]; 2 mM inhibitor, preincubation, 25° C., pH 6.2) | mode of inhibition of HIV-1 PR ([1]; preincubation with 2 mM inhibitor (FIG. 1)) | inhibition of HIV-1 PR [2] | inhibition of HIV-2 PR [3]
CC(C)(C)OC(=O)N[C@@H](Cc1ccccc1)C1(C)CO1 (stereo partly shown) [Example 2] | 3 h | competitive and timedependent inactivation | – | –
C/C=C/C/C=C/CCC(=O)[C@H]1O[C@H]1C(N)=O [cerulenin] | – | – | weakly inhibit | weakly inhibit
